The subject of data set [1] is HeLa cells. Description: Compound sensitivity testing in cell lines (48 h viability). It counts as cell-based. On the procedure: 1500 NCI-H1734 or 1000 A549 cells were plated in a 384-well plate in 40 μl of RPMI supplemented with 10% Fetal Bovine Serum and 1% Pen/Strep. 24 hours after plating, a compound-library of 1924 small molecules was added at a concentration of 10 μM. Staurosporine was used a positive control for cytotoxicity at a concentration of 10 μM, and DMSO was used a negative control at a concentration of 1%. All compounds were incubated for 48 hours with indicated small molecules. After 48 hours, 384-well plates were removed from the incubator and allowed to cool to room temperature for 20 minutes. Cell viability was assessed by adding 40 μl of a 25% CELLTITERGLO® (Promega) in PBS with a THERMO COMBI™ or multichannel-pipette and incubated for 10 minutes. The luminescence signal was read using a Perkin-Elmer EnVision. Viability percentage was calculated by normalizing to DMSO controls.
1000 HeLa (DMEM), 1000 A549 (RPMI), 500 MCF-7 (DMEM), 4000 PC3 (F12-K), 1000 NCI-H2122 (RPMI) or 1500 NCI-H1563 (RPMI) cells were plated in a 384-well plate in 40 μl of corresponding growth media supplemented with 10% Fetal Bovine Serum. 24 hours after plating, indicated compounds were added at indicated concentrations and incubated for 48 hours. Cell viability was assessed as described in Compound library screening in NCI-H1734 and A549 cell lines.

In data set [2] the test system is HeLa cells. The experiment in a line: PARP-cleavage immunoblotting. In kind it is cell-based. The conditions noted are these: 36 hours. On the procedure:
HeLa cells were treated with indicated concentration of DNMDP and staurosporine for 36 hours. HeLa cells were lysed and processed as described in Linker-affinity purification of molecular target of DNMDP and immunoblotting. Membranes were incubated with an antibody against PARP (1:1000, Cell Signaling #9532) and actin and subsequently imaged as described in Linker-affinity purification of molecular target of DNMDP and immunoblotting.
On the technique in general: In western blotting, separated proteins are transferred to a membrane and probed.

The test system of data set [3] is HeLa cells. The experiment in a line: Caspase activity in HeLa cells (Caspase-Glo). In kind it is cell-based. The settings on record: DNMDP treatment 48 hours. Here is the method:
1000 HeLa cells were plated in 384-well plate in 40 μl of corresponding growth media supplemented with 10% Fetal Bovine Serum. 24 hours after plating, indicated compounds were added at indicated concentrations and incubated for 48 hours. Caspase-Glo from Promega was added according to the manufacturers recommendations and luminescence was determined as described in Compound library screening in NCI-H1734 and A549 cell lines.

In data set [4] the test system is HeLa cells. The experiment in a line: Knockdown of SLFN12 expression using shRNA and testing for drug sensitivity. In kind it is cell-based. The settings on record: 72 hours. An excerpt: FIG. 15A is a scatterplot showing mRNA robust multichip average (RMA) expression values for PDE3A and SLFN12 from the Cancer Cell Line Encyclopedia (CCLE) database (a detailed genetic characterization of a large panel of human cancer cell lines) with sensitive cell lines indicated (Barretina et al., Nature 483, 603-607, 2012). 21 sensitive cell lines were binned in three groups of 7 based on area under the curve (AUC) rank. FIG. 15B is a bar graph showing results of a Fisher's exact test on DNMDP sensitivity of cell lines with high expression of both SLFN12 and PDE3A (RMA Log 2>5) compared to other cell lines. The top half of the bar on the right indicates melanoma cell lines. FIG. 15C is a scatterplot showing mRNA RPKM+1 expression values for PDE3A and SLFN12 from RNA sequencing data. FIG. 15D is a bar graph showing qPCR expression changes of SLFN12 in HeLa cells transduced with shSLFN12 normalized to GAPDH. FIG. 15E is a plot showing viability of HeLa cells transduced with indicated shRNA reagents and treated with indicated concentrations of DNMDP for 72 hours.
Constructs expressing shRNAs targeting SLFN12, or the control vector, were packaged into lentiviruses and delivered into HeLa cells by viral transduction. […] SLFN12-targeting shRNAs were used, all of which were obtained from the TRC (CloneIDs: TRCN0000152141 and TRCN0000153520). […]

The test system of data set [5] is HeLa cells. Description: DNMDP cytotoxicity after targeting PDE3A locus using CRISPR. In kind it is cell-based. The settings on record: HeLa infected with Cas9 and sgRNAs against PDE3A. Here is the method:
FIG. 11A is a Western blot. HeLa cells were infected with Cas9 and indicated guide RNAs (sgRNA) against PDE3A. Western blots were probed for PDE3A at indicated time points. FIG. 11B is a bar graph showing percent rescue of HeLa cells that were infected with indicated sgRNAs for two weeks and treated with 1 μM of 6-(4-(diethylamino)-3-nitrophenyl)-5-methyl-4,5-dihydropyridazin-3(2H)-one (DNMDP) for 48 hours. Percent rescue was normalized to the Cas9-only control. FIG. 11C is a plot showing viability of cells infected with indicated sgRNAs and treated with various concentrations of 6-(4-(diethylamino)-3-nitrophenyl)-5-methyl-4,5-dihydropyridazin-3(2H)-one (DNMDP).
Based on the observations that DNMDP-sensitive cells expressed high levels of PDE3A, and that DNMDP competed with non-cytotoxic inhibitors for PDE3A binding, it was hypothesized that DNMDP mediated its cytotoxic phenotype through the interaction with PDE3A and that PDE3A abundance was a direct cellular determinant of DNMDP sensitivity. To validate this hypothesis, the effect of reducing levels of PDE3A on the response to DNMDP was tested. […] In an independent approach using an siRNA smart-pool containing four different siRNAs targeting PDE3A, PDE3A expression was reduced in HeLa cell line with a maximum efficiency of 70% between 24 and 72 hours after transfection. […]

A further data set deals with PDE3. The conditions noted are these: Ruppert et al., Life Sci. 31, 2037-2043, 1982; cited from earlier work.

The text below walks through data of US11207320B2, “Compositions and methods for cancer expressing PDE3A or SLFN12” (The Broad Institute, Inc., priority 2015, dated 2021).

A word on the EC70: it is the concentration at which the effect reaches the 70% level. What is called EC50 is the concentration needed to bring the measured effect to its halfway point. For the compound `CCN(CC)c1ccc(C2=NNC(=O)CC2C)cc1[N+](=O)[O-]` (centres unmarked) [DNMDP, 6-(4-(diethylamino)-3-nitrophenyl)-5-methyl-4,5-dihydropyridazin-3(2H)-one], the 70% effect concentration (EC70) with HeLa cells [1] (HeLa) came out at 0.03 µM. The compound further registered an EC50 in the data set with HeLa cells [1] (Homo sapiens, HeLa cervical carcinoma cells) of 0.01 to 0.1 µM. Besides, the PARP cleavage entry in the data set on HeLa cells [2] is “detected”. In the data set with HeLa cells [3], the “Caspase activity (caspase-sensitive luciferase assay)” value is on record as “detected”. Further, the “sensitivity after reduction of SLFN12 expression (shRNA)” value with HeLa cells [4] is on record as “decreased sensitivity”. Also, the “rescue of toxicity by PDE3A sgRNA2 and sgRNA3” value with HeLa cells [5] is given as “significant rescue of toxicity”.
Usually IC50 stands for the concentration needed to halve the response being measured. Consider `COc1cc2c(cc1OC)-c1c/c(=N\c3c(C)cc(C)cc3C)n(C)c(=O)n1CC2` [trequinsin, 9,10-dimethoxy-3-methyl-2-(2,4,6-trimethylphenyl)imino-6,7-dihydropyrimido[6,1-a]isoquinolin-4-one], for which, in the data set on HeLa cells [1] (HeLa), the “effect on HeLa cell viability / cytotoxicity” value is listed as “did not affect HeLa cell viability in any detectable way”. Also, the IC50 with PDE3 is 0.00025 µM.
